Each compound was assayed against MCL-1 (Homo sapiens (Human), UniProt Q07820, K194A/K197A/R201A) (assay: Protein-protein interaction assay MCL-1/Noxa BH3 peptide (MCL-1 assay, TR-FRET)). Settings: MCL-1 Assay IC50 (median).
MCL-1, sequence (Q07820 whole entry, looked up, stated change not applied): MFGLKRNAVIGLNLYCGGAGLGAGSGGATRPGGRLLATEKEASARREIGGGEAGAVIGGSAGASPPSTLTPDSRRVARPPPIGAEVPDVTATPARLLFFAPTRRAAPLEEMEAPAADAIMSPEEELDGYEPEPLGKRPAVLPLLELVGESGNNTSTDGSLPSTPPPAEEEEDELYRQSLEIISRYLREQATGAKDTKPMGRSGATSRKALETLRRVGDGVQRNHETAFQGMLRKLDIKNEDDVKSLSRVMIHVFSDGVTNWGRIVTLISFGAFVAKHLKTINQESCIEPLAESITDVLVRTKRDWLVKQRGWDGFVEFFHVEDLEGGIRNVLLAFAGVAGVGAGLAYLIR
Type: binding
Procedure, shortened: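 IC50 came from a 4-parameter regression of the 665/620 nm emission ratio, normalized to DMSO controls. The mix held 1 nM MBP-fused MCL-1 (residues 173-321), a biotin-Noxa BH3 tracer and compound in Tris buffer pH 7, incubated 10 min plus 1 h at 22° C., then overnight at 4° C.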
Compound Cc1c2c(nn1C)C(CCO)OCCCCn1c(C(=O)O)c(CCCOc3cccc4ccccc34)c3ccc(Cl)c-2c31 (single isomer, unassigned; enantiomer 2) [Example 32, (−)-4-chloro-15-(2-hydroxyethyl)-2,3-dimethyl-7-{3-[(naphthalen-1-yl)oxy]propyl}-2,10,11,12,13,15-hexahydropyrazolo[4′,3′:9,10][1,6]oxazacycloundecino[8,7,6-hi]indole-8-carboxylic Acid (Enantiomer 2)] has an IC50 of 75 nM.
With CCc1c2c(nn1C)C(c1ccccc1)OCCCCn1c(C(=O)O)c(CCCOc3cccc4cc(F)ccc34)c3ccc(Cl)c-2c31 (racemic) [Example 59, (rac)-4-chloro-3-ethyl-7-{3-[(6-fluoronaphthalen-1-yl)oxy]propyl}-2-methyl-(15-rac)-phenyl-2,10,11,12,13,15-hexahydropyrazolo[4′,3′:9,10][1,6]oxazacycloundecino[8,7,6-hi]indole-8-carboxylic Acid] the IC50 was 2.7 nM.
For CCc1c2c(nn1C)C(CCCN1CCOCC1)OCCCCn1c(C(=O)O)c(CCCOc3cccc4cc(F)ccc34)c3ccc(Cl)c-2c31 (racemic) [Example 65, (rac)-4-chloro-3-ethyl-7-{3-[(6-fluoronaphthalen-1-yl)oxy]propyl}-2-methyl-(15-rac)-[3-(morpholin-4-yl)propyl]-2,10,11,12,13,15-hexahydropyrazolo[4′,3′:9,10][1,6]oxazacycloundecino[8,7,6-hi]indole-8-carboxylic Acid], the IC50 was 1.3 nM.
Work on CCc1c2c(nn1C)C(Cc1ccccc1)OCCCCn1c(C(=O)O)c(CCCOc3cccc4cc(F)ccc34)c3ccc(Cl)c-2c31 (racemic) [Example 92, (rac)-(rac-15)-benzyl-4-chloro-3-ethyl-7-{3-[(6-fluoro-1-naphthyl)oxy]propyl}-2-methyl-2,10,11,12,13,15-hexahydropyrazolo[4′,3′:9,10][1,6]oxazacycloundecino[8,7,6-hi]indole-8-carboxylic Acid] yielded an IC50 of 3.2 nM.
CCc1c2c(nn1C)C(C(F)(F)F)OCCCCn1c(C(=O)O)c(CCCOc3cccc4ccccc34)c3ccc(Cl)c-2c31 (racemic) [Example 27, (rac)-4-Chloro-3-ethyl-2-methyl-7-{3-[(naphthalen-1-yl)oxy]propyl}-15-(trifluoromethyl)-2,10,11,12,13,15-hexahydropyrazolo[4′,3′:9,10][1,6]oxazacycloundecino[8,7,6-hi]indole-8-carboxylic Acid] showed an IC50 of 3.8 nM.
CCc1c2c(nn1C)C(CCC(C)(C)O)OCCCCn1c(C(=O)O)c(CCCOc3cccc4cc(F)ccc34)c3ccc(Cl)c-2c31 (racemic) [Example 74, (rac)-4-chloro-3-ethyl-7-{3-[(6-fluoronaphthalen-1-yl)oxy]propyl}-(15-rac)-(3-hydroxy-3-methylbutyl)-2-methyl-2,10,11,12,13,15-hexahydropyrazolo[4′,3′:9,10][1,6]oxazacycloundecino[8,7,6-hi]indole-8-carboxylic Acid] was tested, and the IC50 was 1 nM.
CCc1c2c(nn1C)C(CC(C)(C)O)OCCCCn1c(C(=O)O)c(CCCOc3cccc4cc(F)ccc34)c3ccc(Cl)c-2c31 (racemic) [Example 52, (rac)-4-chloro-3-ethyl-7-{3-[(6-fluoronaphthalen-1-yl)oxy]propyl}-(15-rac)-(2-hydroxy-2-methylpropyl)-2-methyl-2,10,11,12,13,15-hexahydropyrazolo[4′,3′:9,10][1,6]oxazacycloundecino[8,7,6-hi]indole-8-carboxylic Acid] showed an IC50 of 0.88 nM.
CCc1c2c(nn1C)C(CCN1CCOCC1)OCCCCn1c(C(=O)O)c(CCCOc3cccc4cc(F)ccc34)c3ccc(F)c-2c31 (racemic) [Example 49, (rac)-3-Ethyl-4-fluoro-7-{3-[(6-fluoronaphthalen-1-yl)oxy]propyl}-2-methyl-(15-rac)-[2-(morpholin-4-yl)ethyl]-2,10,11,12,13,15-hexahydropyrazolo[4′,3′:9,10][1,6]oxazacycloundecino[8,7,6-hi]indole-8-carboxylic Acid] showed an IC50 of 0.85 nM.
Compound Cc1c2c(nn1C)C(C1CC1)OCCCCn1c(C(=O)O)c(CCCOc3cccc4ccccc34)c3ccc(Cl)c-2c31 (racemic) [Example 28, (rac)-4-Chloro-15-cyclopropyl-2,3-dimethyl-7-{3-[(naphthalen-1-yl)oxy]propyl}-2,10,11,12,13,15-hexahydropyrazolo[4′,3′:9,10][1,6]oxazacycloundecino[8,7,6-hi]indole-8-carboxylic Acid] has an IC50 of 1.1 nM.
CCc1c2c(nn1C)C(CCN1CCOCC1)OCCCCn1c(C(=O)O)c(CCCOc3cccc4cc(F)ccc34)c3ccc(F)c-2c31 (single isomer, unassigned; enantiomer 2) [Example 51, (−)-3-ethyl-4-fluoro-7-{3-[(6-fluoronaphthalen-1-yl)oxy]propyl}-2-methyl-15-[2-(morpholin-4-yl)ethyl]-2,10,11,12,13,15-hexahydropyrazolo[4′,3′:9,10][1,6]oxazacycloundecino[8,7,6-hi]indole-8-carboxylic Acid (Enantiomer 2)] showed an IC50 of 60 nM.
In the case of Cc1c2c(nn1C)C(CCO)OCCCCn1c(C(=O)O)c(CCCOc3cccc4ccccc34)c3ccc(Cl)c-2c31 (racemic) [Example 26, (rac)-4-chloro-15-(2-hydroxyethyl)-2,3-dimethyl-7-{3-[(naphthalen-1-yl)oxy]propyl}-2,10,11,12,13,15-hexahydropyrazolo[4′,3′:9,10][1,6]oxazacycloundecino[8,7,6-hi]indole-8-carboxylic Acid], the IC50 is reported as 1.1 nM.
With CCc1c2c(nn1C)C(CCO)OCCCCn1c(C(=O)O)c(CCCOc3cccc4cc(F)ccc34)c3ccc(Cl)c-2c31 (single isomer, unassigned; enantiomer 2) [Example 46, (−)-4-chloro-3-ethyl-7-{3-[(6-fluoronaphthalen-1-yl)oxy]propyl}-15-(2-hydroxyethyl)-2-methyl-2,10,11,12,13,15-hexahydropyrazolo[4′,3′:9,10][1,6]oxazacycloundecino[8,7,6-hi]indole-8-carboxylic Acid (Enantiomer 2)] the IC50 was 36 nM.
Work on CCc1c2c(nn1C)C(C1CC1)OCCCCn1c(C(=O)O)c(CCCOc3cccc4cc(F)ccc34)c3ccc(Cl)c-2c31 (racemic) [Example 38, (rac)-4-chloro-(15-rac)-cyclopropyl-3-ethyl-7-{3-[(6-fluoronaphthalen-1-yl)oxy]propyl}-2-methyl-2,10,11,12,13,15-hexahydropyrazolo[4′,3′:9,10][1,6]oxazacycloundecino[8,7,6-hi]indole-8-carboxylic Acid] yielded an IC50 of 1.3 nM.
COCCC1OCCCCn2c(C(=O)O)c(CCCOc3cccc4ccccc34)c3ccc(Cl)c(c32)-c2c1nn(C)c2C (racemic) [Example 37, (rac)-4-chloro-(15-rac)-(2-methoxyethyl)-2,3-dimethyl-7-{3-[(naphthalen-1-yl)oxy]propyl}-2,10,11,12,13,15-hexahydropyrazolo[4′,3′:9,10][1,6]oxazacycloundecino[8,7,6-hi]indole-8-carboxylic Acid] gave an IC50 of 0.48 nM.

Same assay, conditions: read-out: MCL-1 Assay IC50 (median)
CCc1c2c(nn1C)C1CCCN1CCCCn1c(C(=O)O)c(CCCOc3cccc4cc(F)ccc34)c3ccc(Cl)c-2c31 (single isomer, unassigned; (+)) [Example 105, (+)-17-chloro-1-ethyl-14-{3-[(6-fluoronaphthalen-1-yl)oxy]propyl}-2-methyl-3b,4,5,6,8,9,10,11-octahydro-2H-pyrazolo[3′,4′:8,9]pyrrolo[1′,2′:6,7][1,6]diazacycloundecino[10,11,1-hi]indole-13-carboxylic Acid] showed an IC50 of 1.1 nM.

From patent US11440923B2, “Substituted macrocyclic indole derivatives” (Bayer Aktiengesellschaft, priority 2017, dated 2022)
